Results taken from patent US12098144B2, “Piperazine indazole glucocorticoid receptor antagonists” (Corcept Therapeutics Incorporated, priority 2021, dated 2024).

Biological target: T1, glucocorticoid receptor (Homo sapiens, UniProt P04150)
T1 construct: endogenous in cells; ATCC cat
T1 sequence (P04150 1-777): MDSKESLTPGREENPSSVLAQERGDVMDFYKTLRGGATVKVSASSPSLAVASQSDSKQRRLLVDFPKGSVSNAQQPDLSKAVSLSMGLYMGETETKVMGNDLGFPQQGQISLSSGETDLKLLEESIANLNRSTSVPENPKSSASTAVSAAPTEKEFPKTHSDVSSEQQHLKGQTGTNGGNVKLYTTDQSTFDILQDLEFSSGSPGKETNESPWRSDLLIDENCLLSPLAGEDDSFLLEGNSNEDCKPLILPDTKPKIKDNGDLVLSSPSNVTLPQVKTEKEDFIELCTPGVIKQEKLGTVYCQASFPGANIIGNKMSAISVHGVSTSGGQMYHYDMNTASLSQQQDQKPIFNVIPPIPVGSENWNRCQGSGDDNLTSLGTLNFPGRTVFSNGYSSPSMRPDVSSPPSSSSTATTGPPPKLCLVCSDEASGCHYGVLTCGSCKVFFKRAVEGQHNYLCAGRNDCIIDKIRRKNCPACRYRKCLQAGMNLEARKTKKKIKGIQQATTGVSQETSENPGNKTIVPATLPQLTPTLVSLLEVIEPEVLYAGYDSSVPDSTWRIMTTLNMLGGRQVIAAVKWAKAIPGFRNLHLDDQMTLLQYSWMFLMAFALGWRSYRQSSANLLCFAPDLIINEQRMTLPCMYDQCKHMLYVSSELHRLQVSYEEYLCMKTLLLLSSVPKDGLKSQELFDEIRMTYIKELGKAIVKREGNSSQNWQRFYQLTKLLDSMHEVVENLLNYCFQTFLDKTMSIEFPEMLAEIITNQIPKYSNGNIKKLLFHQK
Experiment: Hep G2 TAT IC50: inhibition of dexamethasone-induced TAT in HepG2 cells (384 well)
Format: cell-based
Protocol: Glucocorticoid mediated activation of TAT occurs by transactivation of glucocorticoid response elements in the TAT promoter by glucocorticoid receptor/agonist complex.
HepG2 cells were cultured using MEME media supplemented with 10% (v/v) foetal bovine serum, 2 mM L-glutamine, 1% (v/v) NEAA, and 1% (v/v) penstrep, at 37° C., 5%/95% (v/v) CO2/air.
Compounds were diluted from a 10 mM stock via an Echo Acoustic liquid handler into 10 μL assay media to generate a 10-point half-log dilution curve.
HepG2 cells were then lysed with 8 μL of cell lysis buffer containing a protease inhibitor cocktail for 15 minutes at 25° C. […] After a 2-hour incubation at 37° C. the reaction was terminated by the addition of 8 μL of 5 M aqueous potassium hydroxide solution, and the plates incubated for a further 30 minutes at 37° C.
[compound] and fitting the data to a 4-parameter logistic equation.

Cc1cc2c(cnn2-c2ccc(=O)n(C)c2)cc1C1CN(S(=O)(=O)N2CCOCC2)CCN1CCC(F)(F)F (stereo not drawn) [Example 198, 1-methyl-5-(6-methyl-5-(4-morpholinosulfonyl-1-(3,3,3-trifluoropropyl)piperazin-2-yl)indazol-1-yl)pyridin-2-one]
IC50: 1280 nM

Cc1cc2c(cnn2-c2ccccc2)cc1C1CN(S(=O)(=O)c2cnn(C)n2)CCN1CCC(F)(F)F (stereo not drawn) [Example 199, 6-methyl-5-(4-(2-methyltriazol-4-yl)sulfonyl-1-(3,3,3-trifluoropropyl)piperazin-2-yl)-1-phenyl-indazole]
IC50: 1320 nM

Cc1cccc(-n2ncc3cc(C4CN(S(=O)(=O)c5cnn(C)n5)CCN4CCC(F)(F)F)c(C)cc32)c1 (stereo not drawn) [Example 200, 6-methyl-5-(4-(2-methyltriazol-4-yl)sulfonyl-1-(3,3,3-trifluoropropyl)piperazin-2-yl)-1-(m-tolyl)indazole]
IC50: 4010 nM

Cc1cc2c(cnn2-c2cccc(C(F)F)c2)cc1C1CN(S(=O)(=O)c2cnn(C)n2)CCN1CCC(F)(F)F (stereo not drawn) [Example 201, 1-(3-(difluoromethyl)phenyl)-6-methyl-5-(4-(2-methyltriazol-4-yl)sulfonyl-1-(3,3,3-trifluoropropyl)piperazin-2-yl)indazole]
IC50: 3850 nM

Cc1cc2c(cnn2-c2ccc(F)c(CO)c2)cc1C1CN(S(=O)(=O)c2cnn(C)n2)CCN1CCC(F)(F)F (stereo not drawn) [Example 202, (2-fluoro-5-(6-methyl-5-(4-(2-methyltriazol-4-yl)sulfonyl-1-(3,3,3-trifluoropropyl)piperazin-2-yl)indazol-1-yl)phenyl)methanol]
IC50: 1040 nM

Cc1cc(-n2ncc3cc(C4CN(S(=O)(=O)c5cnn(C)n5)CCN4CCC(F)(F)F)c(C)cc32)ncn1 (stereo not drawn) [Example 203, 6-methyl-1-(6-methylpyrimidin-4-yl)-5-(4-(2-methyltriazol-4-yl)sulfonyl-1-(3,3,3-trifluoropropyl)piperazin-2-yl)indazole]
IC50: 9330 nM

Cc1cnnc(-n2ncc3cc(C4CN(S(=O)(=O)c5cnn(C)n5)CCN4CCC(F)(F)F)c(C)cc32)c1 (stereo not drawn) [Example 204, 6-methyl-1-(5-methylpyridazin-3-yl)-5-(4-(2-methyltriazol-4-yl)sulfonyl-1-(3,3,3-trifluoropropyl)piperazin-2-yl)indazole]
IC50: 3850 nM

COc1ccc(-n2ncc3cc(C4CN(S(=O)(=O)c5cnn(C)n5)CCN4CCC(F)(F)F)c(C)cc32)cc1 (stereo not drawn) [Example 205, 1-(4-methoxyphenyl)-6-methyl-5-(4-(2-methyltriazol-4-yl)sulfonyl-1-(3,3,3-trifluoropropyl)piperazin-2-yl)indazole]
IC50: 2880 nM

COc1ncc(-n2ncc3cc(C4CN(S(=O)(=O)c5cnn(C)n5)CCN4CCC(F)(F)F)c(C)cc32)cc1C (stereo not drawn) [Example 206, 1-(6-methoxy-5-methyl-3-pyridyl)-6-methyl-5-(4-(2-methyltriazol-4-yl)sulfonyl-1-(3,3,3-trifluoropropyl)piperazin-2-yl)indazole]
IC50: 6120 nM

Cc1cc2c(cnn2-c2cc(F)c(=O)n(C)c2)cc1C1CN(S(=O)(=O)c2cnn(C)n2)CCN1CCC(F)(F)F (stereo not drawn) [Example 207, 3-fluoro-1-methyl-5-(6-methyl-5-(4-(2-methyltriazol-4-yl)sulfonyl-1-(3,3,3-trifluoropropyl)piperazin-2-yl)indazol-1-yl)pyridin-2-one]
IC50: 933 nM

CN(C)S(=O)(=O)N1CCN(CCC(F)(F)F)C(c2cc3cnn(-c4ccc(F)cc4)c3cc2Cl)C1 (stereo not drawn) [Example 209, 3-(6-chloro-1-(4-fluorophenyl)indazol-5-yl)-N,N-dimethyl-4-(3,3,3-trifluoropropyl)piperazine-1-sulfonamide]
IC50: 3130 nM

O=S(=O)(N1CCOCC1)N1CCN(CCC(F)(F)F)C(c2cc3cnn(-c4ccc(F)cc4)c3cc2Cl)C1 (stereo not drawn) [Example 210, 4-(3-(6-chloro-1-(4-fluorophenyl)indazol-5-yl)-4-(3,3,3-trifluoropropyl)piperazin-1-yl)sulfonylmorpholine]
IC50: 2540 nM

Cc1cc(-n2ncc3cc(C4CN(S(=O)(=O)N5CCOCC5)CCN4CCC(F)(F)F)c(Cl)cc32)cn(C)c1=O (stereo not drawn) [Example 211, 5-(6-chloro-5-(4-morpholinosulfonyl-1-(3,3,3-trifluoropropyl)piperazin-2-yl)indazol-1-yl)-1,3-dimethyl-pyridin-2-one]
IC50: 589 nM

COc1cc2c(cnn2-c2ccc(F)cc2)cc1C1CN(S(=O)(=O)N(C)C)CCN1CCC(F)(F)F (stereo not drawn) [Example 212, 3-(1-(4-fluorophenyl)-6-methoxy-indazol-5-yl)-N,N-dimethyl-4-(3,3,3-trifluoropropyl)piperazine-1-sulfonamide]
IC50: 1440 nM

COc1cc2c(cnn2-c2ccc(F)cc2)cc1C1CN(S(=O)(=O)N(C)C)CCN1CC1CC(F)(F)C1 (stereo not drawn) [Example 213, 4-((3,3-difluorocyclobutyl)methyl)-3-(1-(4-fluorophenyl)-6-methoxy-indazol-5-yl)-N,N-dimethyl-piperazine-1-sulfonamide]
IC50: 2240 nM
